Data as given in patent publication US10906929B2, “Phosphoramidate nucleoside derivatives as anticancer agents” (NuCana plc, priority 2016, dated 2021).

Assays:
[1] = test system: HL-60; experiment: In vitro cytotoxicity, MTS assay; type: cell-based; settings: Homo sapiens, 72 h, read-out: Inhibitory concentration (IC50) HL-60
Experimental: (§1) Cladribine phosphoramidate derivatives were evaluated against six leukaemic cell lines (KG1, U937, K562, NB4R2, NB4 and HL-60) in vitro. Inhibitory concentration (IC50) at which 50% of the cells were no longer viable (calculated using MTS assay) was determined. Cells were treated with Cladribine and its 3′-phosphoramidate derivatives at concentrations between 100 μM and 0.02 μM by serial dilutions and incubated for 72 h at 37° C., 5% CO2 in a final volume of 90 μL. Twenty microliters of MTS reagent (Promega UK Ltd, Southampton, Hants) was added to the tumour cell cultures and reaction incubated for a further 4 h at 37° C., 5% CO2. The absorbance of the reaction after this time was read by spectrophotometry at 490 nm and the percentage of viable cells calculated relative to untreated control cells in the same assay.

[2] = test system: NB4; experiment: In vitro cytotoxicity, MTS assay; type: cell-based; settings: Homo sapiens, NB-4, 72 h, read-out: Inhibitory concentration (IC50) NB4
Experimental: as §1

[3] = test system: HEL92.1.7 Erythroleukaemia; experiment: In vitro viability assay, CellTiterGlo; type: cell-based
Experimental: (§2) In vitro viability assay was performed to assess the effects of compounds on cell viability in selected cell lines over 72 h using the CellTiterGlo (CTG, Promega-G7573) assay. The tests were performed in duplicates with treatment of compounds at 9 points, 3.16 folds titration in 96 well plates over ˜72 h. The compound starting concentrations were […]. Cell viability assay using CellTiterGlo in 96-well plate were performed. Compounds were dissolved to 40 mM with thawed 100% DMSO. Compounds were serially diluted at 3.16-fold in thawed DMSO, and warmed to 37° C. before being dissolved in media (2 μl+200 μl). After compounds were dissolved in media, media containing compounds were warmed to 37° C. in incubator and then compounds in media were added to cell plates (50 μl+50 μl) in duplicates. The compounds' final concentrations were from 198 μM to 19.9 nM. Solubility of all compounds was checked and recorded again, then the plates were transferred to CO2 tissue culture incubator immediately and incubated for 3 days. DMSO final concentration is 0.5%.

[4] = test system: HL-60 Promyelocytic leukaemia; experiment: In vitro viability assay, CellTiterGlo; type: cell-based
Experimental: as §2

[5] = test system: KG-1 Acute myelogenous leukaemia; experiment: In vitro viability assay, CellTiterGlo; type: cell-based
Experimental: as §2

[6] = test system: RL Non-Hodgkin's lymphoma; experiment: In vitro viability assay, CellTiterGlo; type: cell-based; settings: 72 h
Experimental: as §2

[7] = test system: Z-138 Mantle cell lymphoma; experiment: In vitro viability assay, CellTiterGlo; type: cell-based
Experimental: as §2

[8] = test system: MCF-7 Mammary epithelial adenocarcinoma; experiment: In vitro viability assay, CellTiterGlo; type: cell-based, human
Experimental: as §2

[9] = test system: L1210; experiment: Cytostatic activity, cell counting (Coulter counter); type: cell-based; settings: Mus musculus, L1210, 48 h, read-out: IC50 L1210
Source text: (§3) Tumor cell cultures were infected with M. hyorhinis (ATCC 17981) and after two or more passages (to avoid bias by the initial inoculum) successful infection was confirmed using the MycoAlert™ mycoplasma detection kit (Lonza, Basel, Switzerland). Although this assay is only semi-quantitative, a maximal infection was observed 3 to 4 days after subcultivation of the mycoplasma-exposed cells. Chronically infected tumor cell lines are further referred to as Cell line.Hyor. All tumor cell cultures were maintained in Dulbecco's modified Eagle's medium (DMEM) (Invitrogen) supplemented with 10% fetal bovine serum (Biochrom AG, Berlin, Germany), 10 mm HEPES, and 1 mm sodium pyruvate (Invitrogen). Cells were grown at 37° C. in a humidified incubator with a gas phase containing 5% CO2.
(§4) The cytostatic activity of the test compounds was examined in mycoplasma-infected and uninfected cancer cell lines. When assaying the effect of M. hyorhinis infection, monolayer MCF7 and MCF7.Hyor cells were seeded in 48-well microtiter plates (Nunc™, Roskilde, Denmark) at 10,000 cells/well (Corning Inc., Corning, N.Y.) […]. After 24 h, the cells were exposed to different concentrations of test compound and allowed to proliferate for 72 h (to ensure sufficient cell proliferation and mycoplasma growth) after which the cells were trypsinized and counted using a Coulter counter (Analis, Suarlée, Belgium). Suspension cells (L1210, L1210.Hyor, FM3A, and FM3A.Hyor) were seeded in 96-well microtiter plates (Nunc) at 60,000 cells/well in the presence of different concentrations of test compound. The cells were allowed to proliferate for 48 h and then counted using a Coulter counter. The 50% inhibitory concentration (IC50) was defined as the compound concentration required to reduce cell proliferation by 50%.

[10] = test system: L1210 cells infected with Mycoplasma hyorhinis (HYOR); experiment: Cytostatic activity in mycoplasma-infected cells; type: cell-based, mouse
Source text: as §3, §4

[11] = test system: K562; experiment: In vitro cytotoxicity, MTS assay; type: cell-based; settings: Homo sapiens, 72 h, read-out: Inhibitory concentration (IC50) K562
Experimental: as §1

[12] = test system: KG1; experiment: In vitro cytotoxicity, MTS assay; type: cell-based; settings: Homo sapiens, KG-1, 72 h, read-out: Inhibitory concentration (IC50) KG1
Experimental: as §1

[13] = test system: NB4R2; experiment: In vitro cytotoxicity, MTS assay; type: cell-based; settings: 72 h, read-out: Inhibitory concentration (IC50) NB4R2
Experimental: as §1

[14] = test system: U937; experiment: In vitro cytotoxicity, MTS assay; type: cell-based; settings: Homo sapiens, U-937, 72 h, read-out: Inhibitory concentration (IC50) U937
Experimental: as §1

[15] = test system: KG1a cell line; experiment: Annexin V/propidium iodide apoptosis assay; type: cell-based; settings: 72 h, dose required to kill 50% of the cells
Experimental: (§5) Cells of the KG1a cell line were maintained in RPMI medium (Invitrogen, Paisley, UK) supplemented with 100 units/ml penicillin, 100 μg/ml streptomycin and 20% foetal calf serum. Cells were subsequently aliquoted (10^5 cells/100 μl) into 96-well plates and were incubated at 37° C. in a humidified 5% carbon dioxide atmosphere for 72 h in the presence of nucleoside analogues and their respective phosphoramidates at concentrations that were experimentally determined for each series of compounds. In addition, control cultures were carried out to which no drug was added. Cells were subsequently harvested by centrifugation and were analyzed by flow cytometry using the Annexin V assay.
Measurement of in vitro apoptosis. Cultured cells were harvested by centrifugation and then resuspended in 195 μl of calcium-rich buffer. Subsequently, 5 μl of Annexin V (Caltag Medsystems, Botolph Claydon, UK) was added to the cell suspension and cells were incubated in the dark for 10 mins prior to washing. Cells were finally resuspended in 190 μl of calcium-rich buffer together with 10 μl of propidium iodide. Apoptosis was assessed by dual-colour immunofluorescent flow cytometry as described previously. Subsequently LD50 values (the dose required to kill 50% of the cells in a culture) were calculated for each nucleoside analogue and phosphoramidate.
The data obtained in these experiments were evaluated using one way ANOVA. All data was confirmed as Gaussian or a Gaussian approximation using the omnibus K2 test. LD50 values were calculated from the non-linear regression and line of best-fit analysis of the sigmoidal dose-response curves. All statistical analyses were performed using Graphpad Prism 6.0 software (Graphpad Software Inc., San Diego, Calif.).

[16] = test system: leukaemic stem cell compartment (Lin-/CD34+/CD38-/CD123+) within the KG1a cell line; experiment: Immunophenotypic identification of the leukaemic stem cell compartment; type: cell-based; settings: for Stem cell %: 72 h, LSC phenotype as percentage of all viable cells left, Control: 4%
Experimental: A further comparative analysis of the toxicity of compounds in the KG1a cell line over an extended dose range was carried out, and the relative effect assessed of the compounds on the leukaemic stem cell compartment within the KG1a cell line, across the entire dose range. Thus, experimental tests were performed on certain compounds of the present invention to assess their ability to target cancer stem cells in a leukaemic cell line. The acute myeloid leukaemia (AML) cell line, KG1a, was employed to assess the relative effect of compounds on the stem cell compartment. The KG1a cell line was selected because it manifests a minor stem cell-like compartment with a distinct immunophenotype (Lin^−/CD34^+/CD38^−/CD123^+).
as §5
KG1a cells were cultured for 72 h in the presence of a wide range of concentrations of each compound assayed. Cells were then harvested and labelled with a cocktail of anti-lineage antibodies (PE-cy7), anti-CD34 (FITC), anti-CD38 (PE) and anti-CD123 (PERCP cy5). The sub-population expressing a leukaemic stem cell (LSC) phenotype were subsequently identified and were expressed as a percentage of all viable cells left in the culture. […]

[17] = test system: MCF7; experiment: Cytostatic activity, cell counting (Coulter counter); type: cell-based; settings: Homo sapiens, MCF7, 72 h, read-out: IC50 MCF7
Source text: as §3, §4

[18] = test system: MCF7 cells infected with Mycoplasma hyorhnis (HYOR); experiment: Cytostatic activity in mycoplasma-infected cells; type: cell-based, human; settings: for IC50: Homo sapiens, MCF7, 72 h, read-out: IC50 MCF7/HYOR; for Loss of potency: MCF7/HYOR versus MCF7
Source text: as §3, §4

Compound	IC50 [1] [nM]	IC50 [2] [nM]	IC50 [11] [nM]	IC50 [12] [nM]	IC50 [13] [nM]	IC50 [14] [nM]	LD50 [15] [μm]	stem cell selectivity [16]	Stem cell % [16] [%]	IC50 [17] [nM]	IC50 [18] [nM]	Loss of potency [18]	further results
C[C@H](NP(=O)(Oc1cccc2ccccc12)OC1C[C@H](n2cnc3c(N)nc(Cl)nc32)O[C@@H]1CO)C(=O)OCC(C)(C)C (stereo partly drawn) [Compound 6, 2-Chloro-2′-deoxyadenosine-3′-[1-naphthyl-(2,2-dimethylpropoxy-L-alaninyl)]phosphate]	300	1000											Top Inhibition (%) ([3]; HEL92.1.7, CellTiterGlo, 72 h): 98.6%; EC50 ([3]; Homo sapiens, HEL 92.1.7, 72 h, read-out: EC50 (μM) Ab): 0.07 µM; Top Inhibition (%) ([4]; HL-60, CellTiterGlo, 72 h): 96%; EC50 ([4]; Homo sapiens, HL-60, 72 h, read-out: EC50 (μM) Ab): 0.23 µM; EC50 ([5]; Homo sapiens, KG-1, 72 h, read-out: EC50 (μM) Ab): 1.2 µM; Top Inhibition (%) ([5]; KG-1, CellTiterGlo, 72 h): 98.6%; Top Inhibition (%) ([6]; CellTiterGlo): 98.6%; EC50 ([6]; Homo sapiens, read-out: EC50 (μM) Ab): 0.29 µM; EC50 ([7]; Homo sapiens, Z-138, 72 h, read-out: EC50 (μM) Ab): 1.5 µM; Top Inhibition (%) ([7]; Z-138, CellTiterGlo, 72 h): 101%; EC50 ([8]; Homo sapiens, MCF7, 72 h, read-out: EC50 (μM) Ab): 6.8 µM; Top Inhibition (%) ([8]; MCF-7, CellTiterGlo, 72 h): 102%; IC50 [9]: 1000 nM; Loss of potency ([10]; L1210/HYOR versus L1210): 4-fold; IC50 ([10]; Mus musculus, L1210, 48 h, read-out: IC50 L1210/HYOR): 4000 nM
C[C@H](NP(=O)(Oc1cccc2ccccc12)OC1C[C@H](n2cnc3c(N)nc(Cl)nc32)O[C@@H]1CO)C(=O)OCc1ccccc1 (some centres unmarked) [Compound 18]	390	70	5140	310	1290	10	0.27	exhibited stem cell selectivity	4				targeting of LSCs when compared to cladribine [16]: showed preferential targeting of LSCs
C[C@H](NP(=O)(Oc1ccccc1)OC1C[C@H](n2cnc3c(N)nc(Cl)nc32)O[C@@H]1CO)C(=O)OCc1ccccc1 (some centres unmarked) [Compound 19]	100	240	> 10000	380	110	30	0.83	exhibited stem cell selectivity	3.1	5200	26000	5-fold	
C[C@H](NP(=O)(OC[C@H]1O[C@@H](n2cnc3c(N)nc(Cl)nc32)CC1O)Oc1ccccc1)C(=O)OCc1ccccc1 (some centres unmarked) [Y, reference compound]	1750	230	8050	670	630	80	1.7		2	2100	33000	16-fold	
